The values below come from ChEMBL document CHEMBL1128753, “Synthesis and bioactivity of photolabile sirolimus (rapamycin) analogs” (Bioorg Med Chem Lett, 1995).

Experiment [1] deals with T-cell. Description: Tested for inhibition of T cell proliferation in the co-mitogen stimulated proliferation assay. It counts as functional, cell-based. The settings on record: Homo sapiens.
Experiment [2] deals with Mus musculus. Description: Mean Survival time of the graft was evaluated in murine skin allograft transplantation assay upon intraperitoneal administration of 4 mg/kg dose. It is filed as functional.

In the case of `CO[C@H]1C[C@@H]2CC[C@@H](C)[C@@](O)(O2)C(=O)C(=O)N2CCCC[C@H]2C(=O)O[C@H]([C@H](C)C[C@@H]2CC[C@@H](O)[C@H](OC)C2)CC(=O)[C@H](C)/C=C(\C)[C@@H](OC(=O)CCCCCNc2ccc(N=[N+]=[N-])cc2[N+](=O)[O-])[C@@H](OC)C(=O)[C@H](C)C[C@H](C)/C=C/C=C/C=C/1C`, in experiment [1], 7.8 nM corresponded to half-maximal inhibition (IC50).

Regarding `CO[C@H]1C[C@@H]2CC[C@@H](C)[C@@](O)(O2)C(=O)C(=O)N2CCCC[C@H]2C(=O)O[C@H]([C@H](C)C[C@@H]2CC[C@@H](OC(=O)CCCCCCCNc3ccc(N=[N+]=[N-])cc3[N+](=O)[O-])[C@H](OC)C2)CC(=O)[C@H](C)/C=C(\C)[C@@H](O)[C@@H](OC)C(=O)[C@H](C)C[C@H](C)/C=C/C=C/C=C/1C`, half-maximal inhibition in experiment [1] (IC50) required 10.2 nM. The IC50 values of the last two molecules are within 1.5-fold of each other.

As to `CO[C@H]1C[C@@H]2CC[C@@H](C)[C@@](O)(O2)C(=O)C(=O)N2CCCC[C@H]2C(=O)O[C@H]([C@H](C)C[C@@H]2CC[C@@H](OC(=O)Cc3ccc(N=[N+]=[N-])cc3)[C@H](OC)C2)CC(=O)[C@H](C)/C=C(\C)[C@@H](O)[C@@H](OC)C(=O)[C@H](C)C[C@H](C)/C=C/C=C/C=C/1C`, the MST in experiment [2] was found to be 10.7 days. In experiment [1], inhibition was half-maximal at 1 nM (IC50).

In experiment [2], `CO[C@H]1C[C@@H]2CC[C@@H](C)[C@@](O)(O2)C(=O)C(=O)N2CCCC[C@H]2C(=O)O[C@H]([C@H](C)C[C@@H]2CC[C@@H](OC(=O)Cc3ccc(N=[N+]=[N-])c(I)c3)[C@H](OC)C2)CC(=O)[C@H](C)/C=C(\C)[C@@H](O)[C@@H](OC)C(=O)[C@H](C)C[C@H](C)/C=C/C=C/C=C/1C` returned an MST of 12.7 days. For the same molecule, 3 nM corresponded to half-maximal inhibition in experiment [1] (IC50).

On to `CO[C@H]1C[C@@H]2CC[C@@H](C)[C@@](O)(O2)C(=O)C(=O)N2CCCC[C@H]2C(=O)O[C@H]([C@H](C)C[C@@H]2CC[C@@H](O)[C@H](OC)C2)CC(=O)[C@H](C)/C=C(\C)[C@@H](OC(=O)Cc2ccc(N=[N+]=[N-])cc2)[C@@H](OC)C(=O)[C@H](C)C[C@H](C)/C=C/C=C/C=C/1C`, for which it took 5.8 nM to reach half-maximal inhibition in experiment [1] (IC50).

Take `CO[C@H]1C[C@@H]2CC[C@@H](C)[C@@](O)(O2)C(=O)C(=O)N2CCCC[C@H]2C(=O)O[C@H]([C@H](C)C[C@@H]2CC[C@@H](O)[C@H](OC)C2)CC(=O)[C@H](C)/C=C(\C)[C@@H](OC(=O)CCCCCCCNc2ccc(N=[N+]=[N-])cc2[N+](=O)[O-])[C@@H](OC)C(=O)[C@H](C)C[C@H](C)/C=C/C=C/C=C/1C`: in experiment [1], the 50% inhibitory concentration (IC50) (in general, the concentration that inhibits the measured activity by half) was 10.5 nM.

In experiment [1], `CO[C@H]1C[C@@H]2CC[C@@H](C)[C@@](O)(O2)C(=O)C(=O)N2CCCC[C@H]2C(=O)O[C@H]([C@H](C)C[C@@H]2CC[C@@H](OC(=O)CCCCCNc3ccc(N=[N+]=[N-])cc3[N+](=O)[O-])[C@H](OC)C2)CC(=O)[C@H](C)/C=C(\C)[C@@H](O)[C@@H](OC)C(=O)[C@H](C)C[C@H](C)/C=C/C=C/C=C/1C` returned an IC50 of 2.5 nM.

As to `CO[C@H]1C[C@@H]2CC[C@@H](C)[C@@](O)(O2)C(=O)C(=O)N2CCCC[C@H]2C(=O)O[C@H]([C@H](C)C[C@@H]2CC[C@@H](O)[C@H](OC)C2)CC(=O)[C@H](C)/C=C(\C)[C@@H](O)[C@@H](OC)C(=O)[C@H](C)C[C@H](C)/C=C/C=C/C=C/1C` [SIROLIMUS], in experiment [2], the MST worked out at 12.01 days. Also, half-maximal inhibition in experiment [1] (IC50) required 9.8 nM.
